Values of other authors as cited in patent publication US20060062859A1, “Composition and method to optimize and customize nutritional supplement formulations by measuring genetic and metabolomic contributing factors to disease diagnosis, stratification, prognosis, metabolism, and therapeutic outcomes” (priority 2004, published 2006).

Experiments:
[1] = nucleus accumbens microinjections; cited from earlier work
[2] = people with RA; cited from earlier work
[3] = system: opioid receptor; settings: intra-VTA infusions; cited from earlier work
[4] = cited from earlier work
[5] = system: lipolysis; settings: p <0.01; cited from earlier work

Q: With C[C@H](NC(=O)[C@@H](CC(=O)NO)Cc1ccccc1)C(=O)O [kelatrophan] as the compound, how does the intracranial self-stimulation [1] read?
A: Its intracranial self-stimulation is “reduced”.

Q: With CCCCC/C=C\C/C=C\C/C=C\CCCCC(=O)O [GLA, GAMMA-LINOLENIC ACID] as the compound, how does the RA symptoms [2] read?
A: The RA symptoms was “significant improvements”.

Q: What does the source list for O=C1CC[C@@]2(O)[C@H]3Cc4ccc(O)c5c4[C@@]2(CCN3CC2CC2)[C@H]1O5 [Naltrexone]?
A: stress-induced activation of dopamine metabolism in the NAcc and prefrontal cortex [3]: prevent; body weight ([4]; anorexic patients): weight gain; binge-eating ([4]; bulimics): some reduction

Q: With C[C@]12CCC(=O)C=C1CC[C@@H]1[C@@H]2[C@@H](O)C[C@@]2(C)[C@H]1CC[C@]2(O)C(=O)CO [cortisol] as the compound, how does the “basal rate of lipolysis” value [5] read?
A: The value was “significantly reduced”.
